Measured values taken from US20250122182A1 (Isosterix, Inc., priority 2023, published 2025).

How the values were obtained:
[1] = system: ZR-75-1 cells; experiment: Cell Titer-Glo Luminescent Cell Viability Assay in ZR-75-1 Cells; format: cell-based; settings: compounds replenished every 48 hours till day 10, CellTiter-Glo
Description: The CellTiter-Glo® Luminescent Cell Viability Assay is a homogeneous method employed to determine the number of metabolically active cells in culture. On day 0, ZR-75-1 cells were detached completely from the culture flasks using 0.25% trypsin-EDTA (Catalog #25200056, Gibco). ZR-75-1 cells were seeded into white opaque-96 well culture plate (Catalog #6005680, Perkin Elmer) at a density of 1500 cells per well in 200 μL of RPMI 1640 medium (Catalog #A1049101, Gibco) supplemented with 10% Fetal Bovine Serum (Catalog #16000044, Gibco) and 1× Penicillin-Streptomycin (Catalog #15140122, Gibco). The plates were incubated at 37° C. with 5% CO2 for 24 hours. On day 1, the spent media was removed from each well of the plate and 180 μL of fresh RPMI 1640 complete media was added. Test compounds were diluted in 100% DMSO followed by complete media. 20 μL of media containing compounds were added to each well so that the final DMSO concentration was 0.5%. The test compounds were tested for 10 points DRC (10 μM top concentration, 3-fold dilution). The assay plates were incubated at 37° C. with 5% CO2 for 48 hours. The test compounds and media were replenished every 48 hours till day 10.
On day 10, the CellTiter-Glo® 2.0 reagent (Catalog #G9242, Promega) was thawed and equilibrated to room temperature. Assay plates were removed from the incubator and equilibrated to room temperature for about 30 minutes. 100 μL of spent media was removed from each well and then 50 μL of CellTiter-Glo® 2.0 Reagent was added. The plates were incubated on an orbital shaker at room temperature for 10 minutes to induce cell lysis and stabilize luminescent signal. The luminescent signal was recorded using Perkin Elmer Envision multi-mode plate reader. Percent cytotoxicity induced by test compounds was determined relative to vehicle control. EC50 value for test compounds was calculated using GraphPad Prism software (four parameter-variable slope equation).

[2] = target: Recombinant KAT6A/MOZ (488-778) protein (Homo sapiens (Human), UniProt Q92794); experiment: KAT6A AlphaLISA Inhibition Screening Assay; format: biochemical; settings: for inhibition at 1 µM: read-out: Average Kat6A % inhibition @ 1 μM; for inhibition at 1 µM / Average Kat6A % inhibition @ 1 μM: 1 μM test compound; for inhibition at 10 µM: read-out: Average Kat6A % inhibition @ 10 μM; for inhibition at 10 µM / Average Kat6A % inhibition @ 10 μM: 10 μM test compound
Procedure, shortened: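 25 nM KAT6A (488-778) pre-incubated 60 or 10 min with compound (10-point, 3-fold from 10 μM), then 400 nM acetyl-CoA and 200 nM biotin-H3(1-21) peptide added for 120 min at RT in pH 8.0 Tris buffer with 330 nM TSA. Acetylation read by AlphaLISA (anti-acetyl-lysine acceptor/streptavidin donor beads); % inhibition vs vehicle.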

Chain of Recombinant KAT6A/MOZ (488-778) protein (Q92794 488-778): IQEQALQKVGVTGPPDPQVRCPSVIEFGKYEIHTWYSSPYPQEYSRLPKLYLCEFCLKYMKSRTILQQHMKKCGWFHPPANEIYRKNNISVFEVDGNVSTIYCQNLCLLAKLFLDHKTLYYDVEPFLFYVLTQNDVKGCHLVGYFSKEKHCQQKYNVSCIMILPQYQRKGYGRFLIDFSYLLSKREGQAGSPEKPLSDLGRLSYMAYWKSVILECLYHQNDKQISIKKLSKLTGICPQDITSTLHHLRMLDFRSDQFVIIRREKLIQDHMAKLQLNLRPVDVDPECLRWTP

Row | Compound | inhibition at 1 µM [2] [%] | inhibition at 10 µM [2] [%] | Average Kat6A % inhibition @ 1 μM [2] [%] | Average Kat6A % inhibition @ 10 μM [2] [%] | EC50 ([1]; Homo sapiens) [nM] | EC50 [1] [nM]
1 | C#CC(=O)NCc1cnn(Cc2cc(OC)c3c(NS(=O)(=O)c4cc(C)c(C)cc4OC)noc3c2)c1 [Syn. Ex. 19, N-((1-((4-methoxy-3-((2-methoxy-4,5-dimethylphenyl)sulfonamido)benzo[d]isoxazol-6-yl)methyl)-1H-pyrazol-4-yl)methyl)propiolamide] | 100 | 98 |  |  | < 100 | 
2 | C#CC(=O)NCc1cnn(Cc2cc(OC)c3c(NS(=O)(=O)c4cc5c(cc4OC)CCC5)noc3c2)c1 [Syn. Ex. 23, N-((1-((4-methoxy-3-((6-methoxy-2,3-dihydro-1H-indene)-5-sulfonamido)benzo[d]isoxazol-6-yl)methyl)-1H-pyrazol-4-yl)methyl)propiolamide] |  |  | 100 | 100 |  | < 100
3 | CC#CC(=O)NCc1cnn(Cc2cc(OC)c3c(NS(=O)(=O)c4ccc(OC)cc4OC)noc3c2)c1 [Syn. Ex. 46, N-((1-((3-((2,4-dimethoxyphenyl)sulfonamido)-4-methoxybenzo[d]isoxazol-6-yl)methyl)-1H-pyrazol-4-yl)methyl)but-2-ynamide] | 98 | 100 |  |  | 100 to 1000 | 
4 | CCc1ccc(OC)c(S(=O)(=O)Nc2noc3cc(Cn4cc(CNC(=O)C(C)F)cn4)cc(OC)c23)c1 (stereo not drawn) [Syn. Ex. 47, N-((1-((3-((5-ethyl-2-methoxyphenyl)sulfonamido)-4-methoxybenzo[d]isoxazol-6-yl)methyl)-1H-pyrazol-4-yl)methyl)-2-fluoropropanamide] | 98 | 96 |  |  | 100 to 1000 | 
5 | C=C(F)C(=O)NCc1ccc(Oc2cc(OC)c3c(NS(=O)(=O)c4cc(CC)ccc4OC)noc3c2)nc1 [Syn. Ex. 51, N-((6-((3-((5-ethyl-2-methoxyphenyl)sulfonamido)-4-methoxybenzo[d]isoxazol-6-yl)oxy)pyridin-3-yl)methyl)-2-fluoroacrylamide] | 89 | 100 |  |  | 100 to 1000 | 
6 | C#CC(=O)NCc1cnn(Cc2cc(OC(F)F)c3c(NS(=O)(=O)c4cc(CC)ccc4OC)noc3c2)c1 [Syn. Ex. 53, N-((1-((4-(difluoromethoxy)-3-((5-ethyl-2-methoxyphenyl)sulfonamido)benzo[d]isoxazol-6-yl)methyl)-1H-pyrazol-4-yl)methyl)propiolamide] | 98 | 100 |  |  | 1000 to 10000 | 
7 | CCOc1cc(C)ccc1S(=O)(=O)Nc1noc2cc(Cn3cc(CNC(=O)OC)cn3)cc(OC)c12 [Syn. Ex. 136, methyl ((1-((3-((2-ethoxy-4-methylphenyl)sulfonamido)-4-methoxybenzo[d]isoxazol-6-yl)methyl)-1H-pyrazol-4-yl)methyl)carbamate] | 99 | 99 |  |  |  | 
8 | C=C(F)C(=O)NCc1cnc(Oc2cc(OC)c3c(NS(=O)(=O)c4cc5c(cc4OC)CCC5)noc3c2)s1 [Syn. Ex. 143, 2-fluoro-N-((2-((4-methoxy-3-((6-methoxy-2,3-dihydro-1H-indene)-5-sulfonamido)benzo[d]isoxazol-6-yl)oxy)thiazol-5-yl)methyl)acrylamide] |  |  | 101 | 99 |  | 
9 | C=C(F)C(=O)Nc1ccc(Oc2cc(OC)c3c(NS(=O)(=O)c4cc5c(cc4OC)CCC5)noc3c2)nc1 [Syn. Ex. 144, 2-fluoro-N-(6-((4-methoxy-3-((6-methoxy-2,3-dihydro-1H-indene)-5-sulfonamido)benzo[d]isoxazol-6-yl)oxy)pyridin-3-yl)acrylamide] |  |  | 101 | 99 |  | 
10 | C=C(F)C(=O)NCc1cnn(Cc2cc3onc(NS(=O)(=O)c4ccccc4OC)c3cc2OC)c1 [Syn. Ex. 146, 2-fluoro-N-((1-((5-methoxy-3-((2-methoxyphenyl)sulfonamido)benzo[d]isoxazol-6-yl)methyl)-1H-pyrazol-4-yl)methyl) acrylamide] |  |  | 99 | 101 |  | 

More lines, main results first:

Row | inhibition at 1 µM [2] [%] | inhibition at 10 µM [2] [%] | Average Kat6A % inhibition @ 1 μM [2] [%] | Average Kat6A % inhibition @ 10 μM [2] [%] | Compound | EC50 ([1]; Homo sapiens) [nM] | EC50 [1] [nM]
11 | 98 | 89 |  |  | CCc1ccc(OC)c(S(=O)(=O)Nc2noc3cc(Cn4cc(CNC(=O)OC)cn4)c(OC)cc23)c1 [Syn. Ex. 137, methyl ((1-((3-((5-ethyl-2-methoxyphenyl)sulfonamido)-5-methoxybenzo[d]isoxazol-6-yl)methyl)-1H-pyrazol-4-yl)methyl)carbamate] |  | 
12 |  |  | 111 | 114 | COC(=O)NCc1cnn(Cc2cc3c4c(noc4c2)NS(=O)(=O)c2c(OC)cccc2OCCCCCO3)c1 [Syn. Ex. 138, methyl ((1-((14-methoxy-15,15-dioxido-6,7,8,9-tetrahydro-5H,16H-4,10,18-trioxa-15-thia-16,17-diazabenzo[11,12]cyclotetradeca[1,2,3-cd]inden-2-yl)methyl)-1H-pyrazol-4-yl)methyl)carbamate] |  | 
13 |  |  | 119 | 114 | COC(=O)NCc1cnn(Cc2cc(OC)c3c(NS(=O)(=O)c4cc5c(cc4OC)CCCC5)noc3c2)c1 [Syn. Ex. 139, methyl ((1-((4-methoxy-3-((3-methoxy-5,6,7,8-tetrahydronaphthalene)-2-sulfonamido)benzo[d]isoxazol-6-yl)methyl)-1H-pyrazol-4-yl)methyl)carbamate] |  | 
14 | 106 | 104 |  |  | CCc1ccc(S(=O)(=O)Nc2noc3cc(Cn4cc(CNC(=O)OC)cn4)c4c(c23)OCCC4)c(OC)c1 [Syn. Ex. 140, methyl ((1-((9-((4-ethyl-2-methoxyphenyl)sulfonamido)-3,4-dihydro-2H-chromeno[8,7-d]isoxazol-5-yl)methyl)-1H-pyrazol-4-yl)methyl)carbamate] |  | 
15 | 104 | 91 |  |  | CCc1ccc(OC)c(S(=O)(=O)Nc2noc3cc(Cn4cc(CNC(=O)OC)cn4)c(F)c(OC)c23)c1 [Syn. Ex. 141, methyl ((1-((3-((5-ethyl-2-methoxyphenyl)sulfonamido)-5-fluoro-4-methoxybenzo[d]isoxazol-6-yl)methyl)-1H-pyrazol-4-yl)methyl)carbamate] |  | 
16 | 110 | 99 |  |  | CCOc1cc2c(NS(=O)(=O)c3cc(CC)ccc3OC)noc2cc1Cn1cc(CNC(=O)OC)cn1 [Syn. Ex. 142, methyl ((1-((5-ethoxy-3-((5-ethyl-2-methoxyphenyl)sulfonamido)benzo[d]isoxazol-6-yl)methyl)-1H-pyrazol-4-yl)methyl)carbamate] |  | 
17 | 108 | 108 |  |  | COC(=O)NCc1cnn(Cc2cc3onc(NS(=O)(=O)c4ccccc4OC)c3cc2OC)c1 [Syn. Ex. 145, methyl ((1-((5-methoxy-3-((2-methoxyphenyl)sulfonamido)benzo[d]isoxazol-6-yl)methyl)-1H-pyrazol-4-yl)methyl)carbamate] |  | 
18 |  |  | 101 | 101 | COC(=O)NCc1cnn(Cc2cc3onc(NS(=O)(=O)c4cc5c(cc4OC)CCC5)c3cc2OC)c1 [Syn. Ex. 147, methyl ((1-((5-methoxy-3-((6-methoxy-2,3-dihydro-1H-indene)-5-sulfonamido)benzo[d]isoxazol-6-yl)methyl)-1H-pyrazol-4-yl)methyl)carbamate] |  | 
19 |  |  | 101 | 102 | CCc1ccc(OC)c(S(=O)(=O)Nc2noc3cc(Oc4ncc(CNC(=O)OC)s4)c(OC)cc23)c1 [Syn. Ex. 149, methyl —{N}—[[2-[[3-[(5-ethyl-2-methoxy-phenyl)sulfonylamino]-5-methoxy-1,2-benzoxazol-6-yl]oxy]thiazol-5-yl]methyl]carbamate] |  | 
20 | 101 | 103 |  |  | COc1cc2c(NS(=O)(=O)c3cc(C)ccc3OC)noc2cc1Cn1cc(CN)cn1 [Syn. Ex. 150, N-(6-((4-(aminomethyl)-1H-pyrazol-1-yl)methyl)-5-methoxybenzo[d]isoxazol-3-yl)-2-methoxy-5-methylbenzenesulfonamide] |  | 
21 |  |  | 115 | 117 | N-[[2-[[4-methoxy-3-[(6-methoxyindan-5-yl)sulfonylamino]-1,2-benzoxazol-6-yl]oxy]thiazol-5-yl]methyl]carbamate [Syn. Ex. 148] |  | 
